Experimental data: patent US8507463B2, “Nucleotide analogue prodrug and the preparation thereof” (Jiangsu Chia Tai Tianqing Pharmaceutical Co., Ltd., priority 2005, dated 2013)
Counter-ions that a name gives are not always drawn. Like-named read-outs stand apart in the source and are kept apart here. Values belong to the compound of their own block, whether it stands above or below them.

Tests used:
[1] = Acceleration test (40° C., relative humidity 75%); assay type: physicochemical
Protocol: Samples were sealed with polyethylene plastic bags, placed in the thermostatic drying chamber at 40±2° C. with relative humidity of 75±5% for 3 months. Then the samples were taken at the end of the first, second and third month respectively for determination, compared with the result of day 0, results were listed in the table below: […]

[2] = High temperature test (60° C.); assay type: physicochemical; conditions: sealed ampoules
Protocol: Samples were sealed in clean glass ampoules and put in 60° C. thermostatic drying chamber, then they were taken on the fifth and tenth day respectively for determination, compared with the result of day 0, results were listed in the table below:
Samples were sealed in clean glass ampoules and put in 60° C. thermostatic drying chamber, then they were taken on the fifth and tenth day respectively for determination, compared with the result of day 0, results were listed in the table below

[3] = High humidity test (room temperature, relative humidity 75±5%); assay type: physicochemical; conditions: 25° C.
Protocol: Samples were evenly spread out and placed in open culture dishes, wherein the thickness thereof was less than 5 mm, put in a thermostatic drying chamber at room temperature (25° C.) with relative humidity of 75±5%. Then the samples were taken on the fifth and tenth day respectively for determination, compared with the result of day 0, results were listed in the table below

[4] = Light exposure test (4500±500 Lx); assay type: physicochemical; conditions: light 4500±500 Lx
Excerpt: Samples were evenly spread out and placed in open culture dishes and the thickness thereof was less than 5 mm, then distances were adjusted until the illumination intensity was 4500±500 Lx, samples were taken on the fifth and tenth day respectively for determination, compared with the result of day 0, results were listed in the table below: […]

[5] = assay type: physicochemical; conditions: for amount of solvent (ml), 0.1N HCl / amount of solvent (ml), 0.1N NaOH / amount of solvent (ml), anhydrous ethanol / amount of solvent (ml), methanol / amount of solvent (ml), water: to dissolve 1 g of sample
[6] = Acute toxicity test, median lethal dose (LD50); conditions: both sexes, mouse, in vivo, oral, mice, infused into the stomach, observed 14 days
Protocol: TD fumarate and TD crystalline form A were dissolved in 0.1M citric acid aqueous solution respectively, 140 healthy mice with 18˜22 g body-weight was selected, randomly divided into 14 groups, 10 per group, and the number of male and female mice were equal.
Following the preliminary test, TD fumarate and TD crystalline form A were administered to 7 different dosing groups by infusing into the stomach, observed for 14 days consecutively to investigate the toxic reaction and death cases of mice and then LD50 was calculated.

[7] = Bioavailability: blood concentration-time from plasma radioactivity; assay type: in vivo; conditions: mice, intragastric 30 mg/kg
Protocol: 10 mice were randomly divided into 2 groups, 5 per group, intragastricly administered 3H-TD fumarate and Tenofovir Disoproxil Fumarate at 30 mg/kg with radio dose of 135 μCi/kg respectively. Plasm samples in different times were taken to measure the radioactivity, which was then converted into the plasma concentration.
Comparison of the blood concentration (ug/ml)-time of 3H-TD fumarate and Tenofovir Disoproxil Fumarate.

[8] = Stability analysis, overall conclusion in words; assay type: physicochemical; conditions: from light, high temperature, high humidity and acceleration tests
Duck Hepatitis B Virus = assay: Anti-viral (anti-HBV) test in vivo, DHBV-DNA level by PCR; design: species or system GaoYou pockmark ducks; conditions: ducks, once a day, day 0 level as base line of 100
Protocol: Two-month old pockmark ducks vertically infected with Duck Hepatitis B Virus were selected as animal models to conduct anti-HBV test in vivo, the efficacy was investigated. 80 GaoYou pockmark ducks were divided randomly into. 8 groups, 10 ducks per groups, three groups were given TD fumarate at the dosage of 5, 15, 45 mg/kg once a day respectively, other three groups were given Tenofovir Disoproxil Fumarate at the dosage of 5, 15, 45 mg/kg once a day respectively, other one group was given Adefovir Dipivoxil at the dosage of 15 mg/kg once a day and the remaining group was blank control group. All the groups were administered for 28 days, and blood samples were taken every 7 days to determine the inhibitory effect to the DHBV-DNA level by PCR, inhibition rate was listed in the following table.

Compound: C[C@H](Cn1cnc2c(N)ncnc21)OCP(=O)(OCOC(=O)C(C)(C)C)OCOC(=O)C(C)(C)C [amorphous TD, 9-[2-(R)-[bis[pivaloyloxymethoxy]-phosphinylmethoxy]propyl]adenine]
content (%) ([1]; end of month 1): 92.3% | content (%) ([1]; end of month 2): 88.9% | content (%) ([1]; end of month 3): 82.8% | content (%) ([1]; month 0): 99.0% | content (%) ([2]; day 0): 98.5% | content (%) ([2]; day 5): 97.5% | content (%) ([2]; day 10): 97.1% | content (%) ([3]; day 0): 99.0% | Weight gain after moisture absorption (%) ([3]; day 5): 1.0% | content (%) ([3]; day 5): 97.9% | Weight gain after moisture absorption (%) ([3]; day 10): 2.3% | content (%) ([3]; day 10): 95.8% | content (%) ([4]; day 0): 98.5% | content (%) ([4]; day 5): 98.3% | content (%) ([4]; day 10): 98.1% | solubility conclusion, 0.1N HCl [5]: soluble | solubility conclusion, 0.1N NaOH [5]: slightly | solubility conclusion, anhydrous ethanol [5]: freely soluble | solubility conclusion, methanol [5]: freely soluble | amount of solvent (ml), 0.1N HCl [5]: 25.2 mL | amount of solvent (ml), 0.1N NaOH [5]: 613 mL | amount of solvent (ml), anhydrous ethanol [5]: 5.6 mL | amount of solvent (ml), methanol [5]: 2.0 mL | amount of solvent (ml), water [5]: 380 mL | solubility conclusion, water [5]: soluble | water solubility compared with other solid TD forms, in words [5]: better solubility than crystalline TD in water

Compound: C[C@H](Cn1cnc2c(N)ncnc21)OCP(=O)(OCOC(=O)C(C)(C)C)OCOC(=O)C(C)(C)C.O=C(O)/C=C/C(=O)O [TD fumarate]
LD50 at 14 days ([6]; read-out: LD50): 6050 mg/kg | LD50 at 14 days ([6]; read-out: LD50, 95% confident limit): 4500 to 7870 mg/kg | blood concentration ([7]; 10 min): 730 ng/mL | blood concentration ([7]; 30 min): 1440 ng/mL | blood concentration ([7]; 45 min): 1770 ng/mL | blood concentration ([7]; 60 min): 2520 ng/mL | blood concentration ([7]; 90 min): 1340 ng/mL | blood concentration ([7]; 120 min): 1030 ng/mL | blood concentration ([7]; 180 min): 940 ng/mL | blood concentration ([7]; 240 min): 730 ng/mL | blood concentration ([7]; 360 min): 550 ng/mL | blood concentration ([7]; 480 min): 340 ng/mL | stability, overall conclusion in words [8]: good solubility and stabilities | DHBV-DNA level, First week (Duck Hepatitis B Virus; 5 mg/ml group): 92 ± 7 | DHBV-DNA level, Fourth week (Duck Hepatitis B Virus; 5 mg/ml group): 40 ± 5 | DHBV-DNA level, Second week (Duck Hepatitis B Virus; 5 mg/ml group): 71 ± 5 | DHBV-DNA level, Third week (Duck Hepatitis B Virus; 5 mg/ml group): 50 ± 9 | DHBV-DNA level, First week (Duck Hepatitis B Virus; 15 mg/ml group): 78 ± 9 | DHBV-DNA level, Fourth week (Duck Hepatitis B Virus; 15 mg/ml group): 25 ± 7 | DHBV-DNA level, Second week (Duck Hepatitis B Virus; 15 mg/ml group): 59 ± 8 | DHBV-DNA level, Third week (Duck Hepatitis B Virus; 15 mg/ml group): 39 ± 7 | DHBV-DNA level, First week (Duck Hepatitis B Virus; 45 mg/ml group): 65 ± 6 | DHBV-DNA level, Fourth week (Duck Hepatitis B Virus; 45 mg/ml group): 16 ± 8 | DHBV-DNA level, Second week (Duck Hepatitis B Virus; 45 mg/ml group): 43 ± 5 | DHBV-DNA level, Third week (Duck Hepatitis B Virus; 45 mg/ml group): 25 ± 10 | content (%) ([1]; end of month 1): 99.0% | content (%) ([1]; end of month 2): 98.7% | content (%) ([1]; end of month 3): 98.5% | content (%) ([1]; month 0): 99.3% | content (%) ([2]; day 0): 99.5% | content (%) ([2]; day 5): 99.5% | content (%) ([2]; day 10): 99.4% | content (%) ([3]; day 0): 99.2% | Weight gain after moisture absorption (%) ([3]; day 5): 0% | content (%) ([3]; day 5): 99.1% | Weight gain after moisture absorption (%) ([3]; day 10): 0% | content (%) ([3]; day 10): 99.1% | content (%) ([4]; day 0): 99.2% | content (%) ([4]; day 5): 99.2% | content (%) ([4]; day 10): 99.1% | solubility conclusion, 0.1N HCl [5]: soluble | solubility conclusion, 0.1N NaOH [5]: soluble | solubility conclusion, anhydrous ethanol [5]: freely soluble | solubility conclusion, methanol [5]: freely | amount of solvent (ml), 0.1N HCl [5]: 18.5 mL | amount of solvent (ml), 0.1N NaOH [5]: 65 mL | amount of solvent (ml), anhydrous ethanol [5]: 15.5 mL | amount of solvent (ml), methanol [5]: 7.4 mL | amount of solvent (ml), water [5]: 120 mL | solubility conclusion, water [5]: soluble | water solubility compared with other solid TD forms, in words [5]: better water solubility

content (%) ([1]; end of month 1): 98.7% | content (%) ([1]; end of month 2): 98.5% | content (%) ([1]; end of month 3): 98.4% | content (%) ([1]; month 0): 99.2% | content (%) ([2]; day 0): 99.0% | content (%) ([2]; day 5): 98.9% | content (%) ([2]; day 10): 98.6% | content (%) ([3]; day 0): 99.2% | Weight gain after moisture absorption (%) ([3]; day 5): 0% | content (%) ([3]; day 5): 99.1% | Weight gain after moisture absorption (%) ([3]; day 10): 0% | content (%) ([3]; day 10): 99.1% | content (%) ([4]; day 0): 99.2% | content (%) ([4]; day 5): 99.0% | content (%) ([4]; day 10): 99.3% | solubility conclusion, 0.1N HCl [5]: not | solubility conclusion, 0.1N NaOH [5]: not soluble | solubility conclusion, anhydrous ethanol [5]: slightly | solubility conclusion, methanol [5]: slightly | amount of solvent (ml), 0.1N HCl [5]: >1000 mL | amount of solvent (ml), 0.1N NaOH [5]: >1000 mL | amount of solvent (ml), anhydrous ethanol [5]: 650 mL | amount of solvent (ml), methanol [5]: 760 mL | amount of solvent (ml), water [5]: >1000 mL | solubility conclusion, water [5]: not soluble
Compound: CC(Cn1cnc2c(N)ncnc21)OCP(=O)(OCOC(=O)C(C)(C)C)OCOC(=O)C(C)(C)C.CC1(C)CCC2(C(=O)O)CCC3(C)C(=CCC4C5(C)CCC(O)C(C)(C)C5CCC43C)C2C1 (stereo not shown) [TD oleanolate]

Compound: C[C@H](Cn1cnc2c(N)ncnc21)OCP(=O)(OCOC(=O)C(C)(C)C)OCOC(=O)C(C)(C)C [TD crystalline form B, 9-[2-(R)-[bis[pivaloyloxymethoxy]-phosphinylmethoxy]propyl]adenine]
stability, overall conclusion in words [8]: good stabilities | content (%) ([1]; end of month 1): 95.8% | content (%) ([1]; end of month 2): 92.7% | content (%) ([1]; end of month 3): 88.7% | content (%) ([2]; day 0): 98.8% | content (%) ([2]; day 5): 97.7% | content (%) ([2]; day 10): 97.0% | content (%) ([3]; day 0): 99.6% | Weight gain after moisture absorption (%) ([3]; day 5): 0% | content (%) ([3]; day 5): 98.2% | Weight gain after moisture absorption (%) ([3]; day 10): 0.2% | content (%) ([3]; day 10): 96.9% | content (%) ([4]; day 0): 99.2% | content (%) ([4]; day 5): 98.8% | content (%) ([4]; day 10): 98.7% | solubility conclusion, 0.1N HCl [5]: soluble | solubility conclusion, 0.1N NaOH [5]: slightly | solubility conclusion, anhydrous ethanol [5]: freely soluble | solubility conclusion, methanol [5]: freely soluble | amount of solvent (ml), 0.1N HCl [5]: 27.3 mL | amount of solvent (ml), 0.1N NaOH [5]: 790 mL | amount of solvent (ml), anhydrous ethanol [5]: 6.0 mL | amount of solvent (ml), methanol [5]: 1.5 mL | amount of solvent (ml), water [5]: 840 mL | solubility conclusion, water [5]: slightly

Compound: CC(C)OC(=O)OCOP(=O)(CO[C@H](C)Cn1cnc2c(N)ncnc21)OCOC(=O)OC(C)C [Tenofovir Disoproxil Fumarate]
DHBV-DNA level, First week (Duck Hepatitis B Virus; 5 mg/ml group): 90 ± 9 | DHBV-DNA level, Fourth week (Duck Hepatitis B Virus; 5 mg/ml group): 50 ± 7 | DHBV-DNA level, Second week (Duck Hepatitis B Virus; 5 mg/ml group): 79 ± 5 | DHBV-DNA level, Third week (Duck Hepatitis B Virus; 5 mg/ml group): 65 ± 6 | DHBV-DNA level, First week (Duck Hepatitis B Virus; 15 mg/ml group): 83 ± 6 | DHBV-DNA level, Fourth week (Duck Hepatitis B Virus; 15 mg/ml group): 37 ± 8 | DHBV-DNA level, Second week (Duck Hepatitis B Virus; 15 mg/ml group): 66 ± 7 | DHBV-DNA level, Third week (Duck Hepatitis B Virus; 15 mg/ml group): 53 ± 5 | DHBV-DNA level, First week (Duck Hepatitis B Virus; 45 mg/ml group): 75 ± 9 | DHBV-DNA level, Fourth week (Duck Hepatitis B Virus; 45 mg/ml group): 25 ± 7 | DHBV-DNA level, Second week (Duck Hepatitis B Virus; 45 mg/ml group): 43 ± 8 | DHBV-DNA level, Third week (Duck Hepatitis B Virus; 45 mg/ml group): 35 ± 6
